Results on two compounds are retold here after ChEMBL document CHEMBL1147415, “Inhibition kinetics of carba- and C-fucosyl analogues of GDP-fucose against fucosyltransferase V: implication for the reaction mechanism” (Bioorg Med Chem Lett, 2004).

Experiment [1] deals with T1, 4-galactosyl-N-acetylglucosaminide 3-alpha-L-fucosyltransferase FUT5 (Homo sapiens, UniProt Q11128).
T1 sequence (Q11128 whole entry): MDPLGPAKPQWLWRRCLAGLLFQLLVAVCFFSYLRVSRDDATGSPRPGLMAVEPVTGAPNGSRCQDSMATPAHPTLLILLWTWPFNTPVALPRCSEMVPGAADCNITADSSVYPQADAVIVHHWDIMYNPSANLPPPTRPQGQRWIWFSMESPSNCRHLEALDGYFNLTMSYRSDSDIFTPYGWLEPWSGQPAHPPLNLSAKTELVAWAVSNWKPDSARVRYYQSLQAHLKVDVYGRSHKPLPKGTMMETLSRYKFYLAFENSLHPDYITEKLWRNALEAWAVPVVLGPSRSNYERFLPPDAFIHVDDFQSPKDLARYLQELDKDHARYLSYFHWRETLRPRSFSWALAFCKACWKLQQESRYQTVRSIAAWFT
Kind of experiment: Inhibition of Fucosyltransferase 5 by the compound was evaluated; Competitive inhibition.

The target of experiment [2] is T1, 4-galactosyl-N-acetylglucosaminide 3-alpha-L-fucosyltransferase FUT5. Kind of experiment: Inhibition of Fucosyltransferase 5 by the compound was evaluated; Weak competitive inhibition.

In the case of `CC1CC(OP(=O)(O)OP(=O)(O)OC[C@H]2OC(n3cnc4c(O)nc(N)nc43)[C@H](O)[C@@H]2O)C(O)C(O)C1O` (some centres not stated), in experiment [1], the affinity corresponds to a Ki of 67.1 µM.

`CC1OC(CP(=O)(O)OP(=O)(O)OC[C@H]2OC(n3cnc4c(=O)[nH]c(N)nc43)[C@H](O)[C@@H]2O)C(O)C(O)C1O` (some centres not stated): the Ki (as a rule, the equilibrium dissociation constant of an inhibitor or competing ligand from its target) in experiment [2] came to 889 µM.
